Results from patent US9409914B2, “Triazolo[4,5-d]pyrimidine derivatives” (Merck Patent GmbH, priority 2012, dated 2016).

Experiments:
[1] = target: T1, GCN2 (Homo sapiens, UniProt Q9P2K8); experiment: GCN2 enzyme assay (TR-FRET Lanthascreen, phosphorylation of GFP-eIF2alpha); format: biochemical; settings: 10 μM ATP, 80 nM GFP-eIF2alpha, 30 nM GCN2, room temperature
Text: GCN2: Assay principle & conditions
This assay can quantificate the activity of the serin kinase GCN2 (general control non-derepressible-2).
This kinase is involved in the stress metabolism of cells. It is activated upon starvation (amino acid depletion). Its natural substrate is eIF2a (eukaryotic initiation factor 2 alpha subunit), a translation factor, which gets activated (phosphorylated) by GCN2 in case of an amino acid bottleneck in the cells. This in turn leads to a halt of the protein synthesis. Inhibition of GCN2 results in stopping this mechanism: The cell can not stop protein production upon “starvation” stress.
The assay is run in two steps: the enzymatic reaction and the detection step. In the first step GCN2 is incubated with 10 μM ATP and 80 nM of the GFP-labelled substrate eIF2alpha at room temperature.
The enzymatic reaction is stopped by addition of EDTA. The amount of phosphorylated eIF2alpha is determined by TR-FRET (Lanthascreen): A complex is formed consisting of antibody and GFP labelled phospho-eIF2a, which allows a FRET upon exitation at 340 nm.
The GCN2-activity is directly proportional to the ratio of fluorescence units at the emission wavelengthh 520 nm (phosphopeptide-sensitive wavelength=emission of GFP) to the units at 495 nm (reference wavelength=emission of Terbium-chelate).
Final Concentrations in the Enzymatic Reaction
Target sequence in this assay (Q9P2K8 whole entry, species assumed): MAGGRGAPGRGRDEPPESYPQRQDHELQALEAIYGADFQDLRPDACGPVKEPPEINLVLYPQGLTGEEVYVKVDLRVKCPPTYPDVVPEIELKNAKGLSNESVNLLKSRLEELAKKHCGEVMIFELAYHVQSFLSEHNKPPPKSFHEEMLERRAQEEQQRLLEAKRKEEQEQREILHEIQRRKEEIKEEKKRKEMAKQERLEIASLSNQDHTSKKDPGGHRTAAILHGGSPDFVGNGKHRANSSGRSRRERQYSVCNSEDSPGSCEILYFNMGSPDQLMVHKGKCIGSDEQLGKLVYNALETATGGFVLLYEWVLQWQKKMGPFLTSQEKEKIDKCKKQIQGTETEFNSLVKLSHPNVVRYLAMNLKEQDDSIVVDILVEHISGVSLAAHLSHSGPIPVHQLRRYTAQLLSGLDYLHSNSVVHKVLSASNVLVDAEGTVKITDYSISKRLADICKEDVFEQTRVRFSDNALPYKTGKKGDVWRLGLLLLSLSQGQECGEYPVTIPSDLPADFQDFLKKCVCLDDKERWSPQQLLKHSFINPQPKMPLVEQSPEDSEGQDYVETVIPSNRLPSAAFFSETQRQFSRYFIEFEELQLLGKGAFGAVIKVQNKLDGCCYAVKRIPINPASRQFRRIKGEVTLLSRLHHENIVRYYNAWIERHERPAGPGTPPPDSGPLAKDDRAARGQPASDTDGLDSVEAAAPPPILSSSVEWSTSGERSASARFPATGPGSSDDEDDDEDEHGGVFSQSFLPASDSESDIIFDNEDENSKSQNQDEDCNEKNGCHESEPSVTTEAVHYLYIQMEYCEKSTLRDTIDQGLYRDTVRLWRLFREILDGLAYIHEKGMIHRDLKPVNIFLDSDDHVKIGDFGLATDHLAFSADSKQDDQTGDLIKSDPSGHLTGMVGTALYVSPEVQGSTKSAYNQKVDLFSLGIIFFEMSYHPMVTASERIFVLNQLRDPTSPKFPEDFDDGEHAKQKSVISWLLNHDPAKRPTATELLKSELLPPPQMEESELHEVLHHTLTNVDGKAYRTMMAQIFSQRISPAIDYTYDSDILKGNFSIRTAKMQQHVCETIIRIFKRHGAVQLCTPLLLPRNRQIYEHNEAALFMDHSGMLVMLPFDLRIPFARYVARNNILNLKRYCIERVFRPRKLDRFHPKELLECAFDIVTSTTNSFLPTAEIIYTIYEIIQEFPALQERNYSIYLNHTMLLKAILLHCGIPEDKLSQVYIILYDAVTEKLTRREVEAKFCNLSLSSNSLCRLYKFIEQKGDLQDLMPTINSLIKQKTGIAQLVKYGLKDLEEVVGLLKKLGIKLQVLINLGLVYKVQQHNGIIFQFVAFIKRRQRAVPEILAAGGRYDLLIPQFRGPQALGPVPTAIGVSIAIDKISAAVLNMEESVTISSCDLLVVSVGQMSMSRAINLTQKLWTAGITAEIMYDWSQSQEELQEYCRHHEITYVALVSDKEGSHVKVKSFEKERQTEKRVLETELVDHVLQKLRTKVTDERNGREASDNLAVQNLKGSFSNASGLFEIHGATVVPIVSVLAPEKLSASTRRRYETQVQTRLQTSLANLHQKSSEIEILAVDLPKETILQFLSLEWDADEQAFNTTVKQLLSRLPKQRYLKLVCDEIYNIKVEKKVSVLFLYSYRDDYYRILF

[2] = target: T1, GCN2; experiment: Cellular assay for GCN2 activity (phospho-eIF2alpha immunocytochemistry, tryptophanol-stimulated U2OS cells); format: cell-based; set-up: endogenous in cells; host or cells: U2OS; settings: 2 hours compound, then 600 μM tryptophanol 30 minutes, anti-phospho-eIF2alpha, read-out: IC50 GCN2 (cell assay)
Description: Cellular Assay for the Determination of Compound Activities
Human U2OS cells (2000 cells/well) are seeded into 384-well plates and incubated for 20 hours.
The next day, the cells are treated with the test compounds and incubated for 2 hours. Then, tryptophanol, at a final concentration of 600 μM, is added to the cells and those are incubated for 30 minutes.
The analysis of cellular GCN2 activities is done by immunocytochemistry. Briefly, cells are fixated on the well surfaces by formaldehyde and permeabilised with Triton X-100. The primary antibody (anti-phospho-eIF2alpha (Ser51, Cell Signalling Technology, #3398) is incubated on the treated cells for 20 hours, followed by a 60 minutes incubation of the secondary antibody (anti-rabbit-IgG-Alexa 488; Molecular Probes #11008). The analysis and quantification of phosphorylated GCN2 is done by scanning the plates in the Acumen Explorer system (TTPLabtech). The obtained data are normalised against the untreated control wells (DMSO only) and expressed as % effect values. The determination of IC50 values is done by using the Graph Pad Prism software.
Target sequence in this assay (Q9P2K8 whole entry): as the sequence (Q9P2K8 whole entry, species assumed) above

| SMILES | IC50 [1] | IC50 [2] |
| --- | --- | --- |
| OC[C@@H]1C[C@H]1Cn1cc(Nc2ncc3nnn(-c4ccc(Cl)c(F)c4)c3n2)cn1 (relative stereo) [Compound A98, ((trans)-2-{4-[3-(4-chloro-3-fluoro-phenyl)-3H-[1,2,3]triazolo[4,5-d]pyrimidin-5-ylamino]-pyrazol-1-ylmethyl}-cyclopropyl)-methanol] | < 300 nM | 300 to 3000 nM |
| COc1ccc(-n2nnc3cnc(Nc4cnn(-c5ccccc5)c4)nc32)cc1 [Compound A1, [3-(4-methoxy-phenyl)-3H-[1,2,3]triazolo[4,5-d]pyrimidin-5-yl]-(1-phenyl-1H-pyrazol-4-yl)-amine] | 300 to 3000 nM | 3000 to 50000 nM |
| COc1ccc(-n2nnc3cnc(Nc4cn[nH]c4)nc32)cc1 [Compound A3, [3-(4-methoxy-phenyl)-3H-[1,2,3]triazolo[4,5-d]pyrimidin-5-yl]-(1H-pyrazol-4-yl)-amine] | < 300 nM | 3000 to 50000 nM |
| c1ccc(-n2nnc3cnc(Nc4cn[nH]c4)nc32)cc1 [Compound A4, (3-phenyl-3H-[1,2,3]triazolo[4,5-d]pyrimidin-5-yl)-(1H-pyrazol-4-yl)-amine] | < 300 nM | 3000 to 50000 nM |
| COc1ccc(-n2nnc3cnc(Nc4cnn(C5CCNCC5)c4)nc32)cc1 [Compound A6, [3-(4-methoxy-phenyl)-3H-[1,2,3]triazolo[4,5-d]pyrimidin-5-yl]-(1-piperidin-4-yl-1H-pyrazol-4-yl)-amine] | < 300 nM | 300 to 3000 nM |
| COc1ccc(-n2nnc3cnc(Nc4cnn(C5CCN(C)CC5)c4)nc32)cc1 [Compound A8, [3-(4-methoxy-phenyl)-3H-[1,2,3]triazolo[4,5-d]pyrimidin-5-yl]-[1-(1-methyl-piperidin-4-yl)-1H-pyrazol-4-yl]-amine] | < 300 nM | 300 to 3000 nM |
| CN1CCC(n2cc(Nc3ncc4nnn(-c5ccccc5)c4n3)cn2)CC1 [Compound A11, [1-(1-methyl-piperidin-4-yl)-1H-pyrazol-4-yl]-(3-phenyl-3H-[1,2,3]triazolo[4,5-d]pyrimidin-5-yl)-amine] | 300 to 3000 nM | 300 to 3000 nM |
| COc1ccc(-n2nnc3cnc(Nc4cnn(C5COC5)c4)nc32)cc1 [Compound A23, 3-(4-methoxyphenyl)-N-[1-(oxetan-3-yl)pyrazol-4-yl]triazolo[4,5-d]pyrimidin-5-amine] | < 300 nM | 300 to 3000 nM |
| COCCN1CCC(n2cc(Nc3ncc4nnn(-c5ccc(OC)cc5)c4n3)cn2)CC1 [Compound A26, N-[1-[1-(2-methoxyethyl)-4-piperidyl]pyrazol-4-yl]-3-(4-methoxyphenyl)triazolo[4,5-d]pyrimidin-5-amine] | < 300 nM | 300 to 3000 nM |
| NS(=O)(=O)c1ccc(-n2nnc3cnc(Nc4cnn(CCn5cccn5)c4)nc32)cc1 [Compound A135, 4-{5-[1-(2-pyrazol-1-yl-ethyl)-1H-pyrazol-4-ylamino]-[1,2,3]triazolo[4,5-d]pyrimidin-3-yl)-benzenesulfonamide] | < 300 nM | – |
| CN1CCC(n2cc(Nc3ncc4nnn(-c5ccc(S(=O)(=O)N6CCCC6)cc5)c4n3)cn2)CC1 [Compound A136, [1-(1-methyl-piperidin-4-yl)-1H-pyrazol-4-yl]-{3-[4-(pyrrolidine-1-sulfonyl)-phenyl]-3H-[1,2,3]triazolo[4,5-d]pyrimidin-5-yl}-amine] | 300 to 3000 nM | – |
| COc1ccc(-n2nnc3cnc(Nc4cnn([C@H]5CC[C@@H](O)CC5)c4)nc32)cn1 [Compound A137, 4-{4-[3-(6-methoxy-pyridin-3-yl)-3H-[1,2,3]triazolo[4,5-d]pyrimidin-5-ylamino]-pyrazol-1-yl}-cyclohexanol] | 300 to 3000 nM | – |
| COc1ccc(-n2nnc3cnc(Nc4cnn(N5CCOCC5=O)c4)nc32)cc1 [Compound A138, 4-{4-[3-(4-methoxy-phenyl)-3H-[1,2,3]triazolo[4,5-d]pyrimidin-5-ylamino]-pyrazol-1-yl}-morpholin-3-one] | < 300 nM | – |
| CN1CCC(n2cc(Nc3ncc4nnn(-c5ccn(C)n5)c4n3)cn2)CC1 [Compound A139, [1-(1-methyl-piperidin-4-yl)-1H-pyrazol-4-yl]-[3-(1-methyl-1H-pyrazol-3-yl)-3H-[1,2,3]triazolo[4,5-d]pyrimidin-5-yl]-amine] | 300 to 3000 nM | – |
| CCOc1ccc(-n2nnc3cnc(Nc4cc(-c5cnn(C)c5C)n[nH]4)nc32)cc1 [Compound A140, (1′,5′-dimethyl-1H,1′H-[3,4′]bipyrazolyl-5-yl)-[3-(4-ethoxy-phenyl)-3H-[1,2,3]triazolo[4,5-d]pyrimidin-5-yl]-amine] | 300 to 3000 nM | – |
| COc1ccc(-n2nnc3cnc(Nc4cnn([C@H]5CC[C@@H](O)CC5)c4)nc32)nc1 [Compound A141, 4-{4-[3-(5-methoxy-pyridin-2-yl)-3H-[1,2,3]triazolo[4,5-d]pyrimidin-5-ylamino]-pyrazol-1-yl}-cyclohexanol] | < 300 nM | – |
| CN1CCC(n2cc(Nc3ncc4nnn(-c5ccc(S(N)(=O)=O)cc5)c4n3)cn2)CC1 [Compound A142, 4-{5-[1-(1-methyl-piperidin-4-yl)-1H-pyrazol-4-ylamino]-[1,2,3]triazolo[4,5-d]pyrimidin-3-yl}-benzenesulfonamide] | < 300 nM | – |
| COc1ccc(-n2nnc3cnc(Nc4cnn([C@H]5CC[C@H](O)CC5)c4)nc32)nc1 [Compound A143, 4-{4-[3-(5-methoxy-pyridin-2-yl)-3H-[1,2,3]triazolo[4,5-d]pyrimidin-5-ylamino]-pyrazol-1-yl}-cyclohexanol] | < 300 nM | – |
| CC(C)(F)c1ccc(-n2nnc3cnc(Nc4cnn(C5CCOCC5)c4)nc32)cc1 [Compound A144, {3-[4-(1-fluoro-1-methyl-ethyl)-phenyl]-3H-[1,2,3]triazolo[4,5-d]pyrimidin-5-yl}-[1-(tetrahydro-pyran-4-yl)-1H-pyrazol-4-yl]-amine] | < 300 nM | – |
| O=C1COCCN1n1cc(Nc2ncc3nnn(-c4ccc5cccnc5c4)c3n2)cn1 [Compound A145, 4-[4-(3-quinolin-7-yl-3H-[1,2,3]triazolo[4,5-d]pyrimidin-5-ylamino)-pyrazol-1-yl]-morpholin-3-one] | 300 to 3000 nM | – |
| Cn1ccc(-n2nnc3cnc(Nc4cnn(C5CCOCC5)c4)nc32)n1 [Compound A147, [3-(1-methyl-1H-pyrazol-3-yl)-3H-[1,2,3]triazolo[4,5-d]pyrimidin-5-yl]-[1-(tetrahydro-pyran-4-yl)-1H-pyrazol-4-yl]-amine] | 300 to 3000 nM | – |
| CCn1cc(Nc2ncc3nnn(-c4ccc(C(C)(C)N)cc4)c3n2)cn1 [Compound A148, {3-[4-(1-amino-1-methyl-ethyl)-phenyl]-3H-[1,2,3]triazolo[4,5-d]pyrimidin-5-yl}-(1-ethyl-1H-pyrazol-4-yl)-amine] | 300 to 3000 nM | – |
| CCOc1ccc(-n2nnc3cnc(Nc4cnn(CCN5CCOCC5=O)c4)nc32)cc1 [Compound A149, 4-(2-{4-[3-(4-ethoxy-phenyl)-3H-[1,2,3]triazolo[4,5-d]pyrimidin-5-ylamino]-pyrazol-1-yl}-ethyl)-morpholin-3-one] | < 300 nM | – |
| CCOc1ccc(-n2nnc3cnc(Nc4cnn(C5CN(C(=O)COC)C5)c4)nc32)cc1 [Compound A150, 1-(3-{4-[3-(4-ethoxy-phenyl)-3H-[1,2,3]triazolo[4,5-d]pyrimidin-5-ylamino]-pyrazol-1-yl}-azetidin-1-yl)-2-methoxy-ethanone] | < 300 nM | – |
| CCOc1ccc(-n2nnc3cnc(Nc4cnn(CCN5CCC(O)C5)c4)nc32)cc1 (stereo not shown) [Compound A151, 1-(2-{4-[3-(4-ethoxy-phenyl)-3H-[1,2,3]triazolo[4,5-d]pyrimidin-5-ylamino]-pyrazol-1-yl}-ethyl)-pyrrolidin-3-ol] | < 300 nM | – |
| CC(C)(N)c1ccc(-n2nnc3cnc(Nc4cnn(C5CCOCC5)c4)nc32)cc1 [Compound A152, {3-[4-(1-amino-1-methyl-ethyl)-phenyl]-3H-[1,2,3]triazolo[4,5-d]pyrimidin-5-yl}-[1-(tetrahydro-pyran-4-yl)-1H-pyrazol-4-yl]-amine] | < 300 nM | – |
| CN1CCC(n2cc(Nc3ncc4nnn(-c5ccc(Cl)cc5)c4n3)cn2)CC1 [Compound A153, [3-(4-chloro-phenyl)-3H-[1,2,3]triazolo[4,5-d]pyrimidin-5-yl]-[1-(1-methyl-piperidin-4-yl)-1H-pyrazol-4-yl]-amine] | < 300 nM | – |
| CS(=O)(=O)N1CCC(n2cc(Nc3ncc4nnn(-c5ccc(F)c(Cl)c5)c4n3)cn2)CC1 [Compound A154, [3-(3-chloro-4-fluoro-phenyl)-3H-[1,2,3]triazolo[4,5-d]pyrimidin-5-yl]-[1-(1-methanesulfonyl-piperidin-4-yl)-1H-pyrazol-4-yl]-amine] | 300 to 3000 nM | – |
